{
  "source": "patent US20040086942A1",
  "about": "“Ige receptor antagonists” (priority 2003, published 2004)",
  "assay": "2D NMR structural score versus reference peptide",
  "type": "physicochemical",
  "design": "key to Struct. Score: +++ indicates the peptide is structured similarly to IGE063 (SEQ ID NO:49); + indicates the peptide is structured similarly to IGE063 (SEQ ID NO:49), but is less stable; −/+ indicates the peptide has some elements of stable structure, but the conformation differs from the reference structure (e.g., a different turn type is evident); − indicates the peptide is predominantly unstructured in aqueous solution; key to Structure Score: +++, peptide structurally similar to reference; +, structurally similar to reference but significantly less stable; +/−, peptide has some elements of stable structure, but the conformation differs from the reference structure; −, peptide is predominantly unstructured; *peptide IGE037 (SEQ ID NO:128) was initially unstructured (monomeric form), but became structured after spontaneous dimer formation",
  "settings": "for Struct. Score: reference IGE063; for Structure Score: reference IGE134",
  "protocol": "Peptides were evaluated by 2D NMR spectroscopy to assess the effect of substitutions on the three-dimensional structure of the peptide analog. All peptides with a structural score indicated in Table 5 were analyzed by 2D NMR spectroscopy; backbone ^1H resonances were assigned and ^3JHN-Hα coupling constants were measured and compared to the reference peptide (IGE063, SEQ ID NO:49; see Example 5). Peptides are defined to be of similar structure to the reference peptide provided chemical shifts, coupling constants, and NOEs are consistent with that structure.\nA structural score was assigned to peptides analyzed by 2D NMR spectroscopy. For each of these peptides, backbone ^1H resonances have been assigned, and the ^3JHN-Ha coupling constants have been measured and compared to the reference peptide (i.e., IGE134 (SEQ ID NOS:155, 171)). Peptides are defined to be of similar structure to the reference peptide provided. chemical shifts, coupling constants, and NOEs are consistent with that structure.",
  "note": "Where a SMILES comes first, the peptide text is derived from it. Bridges are numbered along the chain shown (N, C = ends).",
  "data": [
    {"compound": "CSCC[C@H](NC(=O)[C@@H]1CSSC[C@H](NC(=O)[C@H](CCCNC(=N)N)NC(=O)[C@@H]2CCCN2C(=O)[C@H](CC(C)C)NC(=O)[C@H](CC(N)=O)NC(C)=O)C(=O)N[C@@H]([C@@H](C)O)C(=O)N[C@@H](CCC(=O)O)C(=O)NCC(=O)N2CCC[C@H]2C(=O)N[C@@H](C(C)C)C(=O)NCC(=O)N[C@@H](Cc2c[nH]c3ccccc23)C(=O)N[C@@H](C(C)C)C(=O)N1)C(=O)O", "note": "[IGE106, Ac-NLPRCTEGPVGWVCM] (Ac-NLPRCTEGPVGWVCM-OH; disulfide 5-14; C-terminus assumed)", "values": [
      {"measurement": "Struct. Score", "result": "+++"}
    ]},
    {"compound": "CSCC[C@H](NC(=O)[C@@H]1CSSC[C@H](NC(=O)[C@@H]2CCCN2C(=O)[C@H](CC(C)C)NC(=O)[C@H](CC(N)=O)NC(C)=O)C(=O)N[C@@H]([C@@H](C)O)C(=O)N[C@@H](CCC(=O)O)C(=O)NCC(=O)N2CCC[C@H]2C(=O)N[C@@H](Cc2c[nH]c3ccccc23)C(=O)NCC(=O)N[C@@H](Cc2c[nH]c3ccccc23)C(=O)N[C@@H](C(C)C)C(=O)N1)C(=O)O", "note": "[IGE107, Ac-NLPCTEGPWGWVCM] (Ac-NLPCTEGPWGWVCM-OH; disulfide 4-13)", "values": [
      {"measurement": "Struct. Score", "result": "+"}
    ]},
    {"compound": "CSCC[C@H](NC(=O)[C@@H]1CSSC[C@H](NC(=O)[C@H](CCCNC(=N)N)NC(=O)[C@@H]2CCCN2C(=O)[C@H](CC(C)C)NC(=O)[C@H](CC(N)=O)NC(C)=O)C(=O)N[C@@H]([C@@H](C)O)C(=O)N[C@@H](CCC(=O)O)C(=O)NCC(=O)N2CCC[C@H]2C(=O)N[C@@H](Cc2c[nH]c3ccccc23)C(=O)NCC(=O)N[C@@H](CC(C)C)C(=O)N[C@@H](C(C)C)C(=O)N1)C(=O)O", "note": "[IGE109, Ac-NLPRCTEGPWGLVCM] (Ac-NLPRCTEGPWGLVCM-OH; disulfide 5-14; C-terminus assumed)", "values": [
      {"measurement": "Struct. Score", "result": "+++"}
    ]},
    {"compound": "CC(C)C[C@@H]1NC(=O)[C@H](C)NC(=O)[C@H](Cc2c[nH]cn2)NC(=O)CNC(=O)CNC(=O)[C@H](C(C)C)NC(=O)[C@H](Cc2ccc(O)cc2)NC(=O)[C@@H]2CSSC[C@H](NC1=O)C(=O)N1CCC[C@H]1C(=O)N[C@@H](CC(=O)O)C(=O)N[C@@H](C(C)C)C(=O)N[C@H](C(=O)N[C@@H](Cc1ccc(O)cc1)C(=O)N[C@H](C(=O)NCC(=O)N[C@@H](CCCNC(=N)N)C(=O)O)C(C)C)CSSC[C@H](NC(=O)[C@H](CCC(N)=O)NC(=O)[C@@H](N)C(C)C)C(=O)N1CCC[C@H]1C(=O)N[C@@H](Cc1c[nH]cn1)C(=O)N[C@@H](Cc1ccccc1)C(=O)N2", "note": "[IGE132] (H-VQCPHFCYVGGHALCPDVCYVGR-OH; disulfide 3-19, 7-15)", "values": [
      {"measurement": "Structure Score", "result": "+++"}
    ]},
    {"compound": "CC(C)C[C@@H]1NC(=O)[C@H](C)NC(=O)[C@H](Cc2c[nH]cn2)NC(=O)CNC(=O)CNC(=O)[C@H](C(C)C)NC(=O)[C@H](Cc2ccc(O)cc2)NC(=O)[C@@H]2CSSC[C@H](NC1=O)C(=O)N[C@@H](C)C(=O)N[C@@H](CC(=O)O)C(=O)N[C@@H](C(C)C)C(=O)N[C@H](C(=O)N[C@@H](Cc1ccc(O)cc1)C(=O)N[C@H](C(=O)NCC(=O)N[C@@H](CCCNC(=N)N)C(=O)O)C(C)C)CSSC[C@H](NC(=O)[C@H](CCC(N)=O)NC(=O)[C@@H](N)C(C)C)C(=O)N1CCC[C@H]1C(=O)N[C@@H](Cc1c[nH]cn1)C(=O)N[C@@H](Cc1ccccc1)C(=O)N2", "note": "[IGE143] (H-VQCPHFCYVGGHALCADVCYVGR-OH; disulfide 3-19, 7-15 (inferred))", "values": [
      {"measurement": "Structure Score", "result": "+++"}
    ]},
    {"compound": "CC(C)C[C@@H]1NC(=O)[C@H](CCC(=O)O)NC(=O)[C@H](Cc2ccc(O)cc2)NC(=O)[C@@H]2CSSC[C@H](NC(=O)[C@H](CC(C)C)NC(=O)[C@H](CCC(=O)O)NC(=O)[C@H](Cc3ccc(O)cc3)NC(=O)[C@H](CC(=O)O)NC1=O)C(=O)N1CCC[C@H]1C(=O)N[C@@H](CC(=O)O)C(=O)N[C@@H](C(C)C)C(=O)N[C@H](C(=O)N[C@@H](Cc1ccc(O)cc1)C(=O)N[C@H](C(=O)NCC(=O)N[C@@H](CCCNC(=N)N)C(=O)O)C(C)C)CSSC[C@H](NC(=O)[C@H](CCC(N)=O)NC(=O)[C@@H](N)C(C)C)C(=O)N1CCC[C@H]1C(=O)N[C@@H](Cc1c[nH]cn1)C(=O)N[C@@H](Cc1ccccc1)C(=O)N2", "note": "[IGE156] (H-VQCPHFCYELDYELCPDVCYVGR-OH; disulfide 3-19, 7-15 (inferred))", "values": [
      {"measurement": "Structure Score", "result": "+++"}
    ]}
  ]
}
